The values that follow come from PubChem BioAssay (NCI).

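Each compound was tested at five concentrations against cells in 96-well plates for 48 hours. Definition used: TGI = concentration required for complete inhibition of growth.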

Holding throughout (assay): NCI anticancer screen, dose series, 48 h
For experiment [1], the system named is COLO 205 colon.
The test system of experiment [2] is ACHN renal.
Experiment [3] has as its system SF-295 CNS.
Experiment [4] concerns HCC-2998 colon.
The subject of experiment [5] is K-562 leukemia.
In experiment [6] the test system is SK-MEL-5 melanoma.
Experiment [7] deals with 786-0 renal.
In experiment [8] the test system is M14 melanoma.
Experiment [9] deals with SNB-75 CNS.
Experiment [10] concerns A498 renal.
Experiment [11] concerns NCI/ADR-RES ovarian.
In experiment [12] the test system is MALME-3M melanoma.
The subject of experiment [13] is A549 NSCLC.

As for `CCOC(=O)CCN1C(=O)c2ccc(NC(=O)C(=O)O)cc2S1(=O)=O`, the TGI in experiment [1], in experiment [2], in [3], in experiment [4], in experiment [5] and in experiment [6] was above 100 µM throughout. Further, the TGI in experiment [7], in [8], in [9], in experiment [10], in experiment [11] and in experiment [12] was above 100 µM each time. The compound further displayed a TGI in [13] above 100 µM.
For `CCOC(=O)NC(OCCN(C)C)(C(F)(F)F)C(F)(F)F`, the TGI in experiment [1], in [2], in [3], in [4], in [5] and in experiment [6] was above 100 µM each time. For the same compound, the TGI in [7], in experiment [8], in experiment [9], in experiment [10], in experiment [11] and in [12] was above 100 µM in each case. Moreover, the TGI in [13] is above 100 µM.
On to `CC(C)/C(Cl)=N/OC(NC(=O)Nc1ccc(Cl)c(Cl)c1)(C(F)(F)F)C(F)(F)F`, for which the TGI was found to be 9.27 µM in experiment [1]; 24.9 µM in experiment [2]; 38.5 µM in experiment [3]; 36 µM in experiment [4]; 8.86 µM in experiment [5]; 29.3 µM in experiment [6]. Further, the TGI in [7] turned out to be 22.2 µM; in experiment [8], 18.3 µM; in experiment [9], 31.3 µM; in [10], 34.7 µM; in experiment [11], 31.7 µM; in [12], 4.55 µM. This compound also returned a TGI in experiment [13] of 72.4 µM.
Regarding `CNc1nc2c(C)ccc3nc(N(C)C)nc-3c2n1C`, the TGI in experiment [1], in [2], in experiment [3], in [4], in experiment [5] and in experiment [6] was above 10 µM throughout. Moreover, the TGI in experiment [7], in [8], in experiment [9], in experiment [10], in experiment [11] and in experiment [12] was above 10 µM throughout. This compound gave a TGI in experiment [13] above 10 µM.
With `O=S(=O)(O)c1ccc(N=Nc2c(O)ccc3ccccc23)cc1`, the TGI in [1], in experiment [2], in experiment [3], in experiment [4], in [5] and in [6] was above 100 µM throughout. Also, the TGI in [7], in experiment [8], in [9], in experiment [10], in [11] and in experiment [12] was above 100 µM each time. Further, the TGI in experiment [13] is above 100 µM.
As for `O=C(/C=C/c1ccsc1)c1cccs1`, the TGI in experiment [1] was 94.2 µM; in experiment [2], above 100 µM; in [3], above 100 µM; in experiment [4] it was 34.7 µM; in experiment [5], above 100 µM; in experiment [6], 36.3 µM. Besides, the TGI is above 100 µM in experiment [7]; 54.4 µM in [8]; above 100 µM in experiment [9]; above 100 µM in [10]; 44.9 µM in [11]; above 100 µM in experiment [12]. In experiment [13], the TGI is above 100 µM.
In the case of `CCOC(=O)C(C)c1nc2cc(F)c(N3CCOCC3)cc2[nH]c1=O` (stereo not given), the TGI in [1], in experiment [2], in [3], in [4], in [5] and in experiment [6] was above 100 µM in each case. Moreover, the TGI in experiment [7], in experiment [8], in [9], in experiment [10], in [11] and in experiment [12] was above 100 µM each time. The compound also registered a TGI in [13] above 100 µM.
Regarding `Cc1cccc2c1CC(C1OC(=O)c3c(C)cccc31)C2=O` (stereo not given), the TGI in experiment [1], in experiment [2], in experiment [3], in experiment [4], in [5] and in [6] was above 100 µM in each case. In addition, the TGI in experiment [7], in experiment [8], in experiment [9], in experiment [10], in [11] and in [12] was above 100 µM in each case. This compound also showed a TGI in experiment [13] above 100 µM.
As for `O=C1CSC2(CC(/C=C/c3cccc(Br)c3)=NN2c2cccc(S(=O)(=O)O)c2)N1c1nc2ccccc2s1` (stereo not given), the TGI in experiment [1], in experiment [2], in [3], in experiment [4], in experiment [5] and in experiment [6] was above 100 µM throughout. Further, the TGI in experiment [7], in [8], in [9], in [10], in [11] and in experiment [12] was above 100 µM in each case. In experiment [13], this compound displayed a TGI above 100 µM.
As for `CC(C)C(=O)CC(Sc1ccc(N)cc1)c1ccccc1` (stereo not given), the TGI was above 100 µM in experiment [1]; 58.3 µM in [2]; above 100 µM in experiment [3]; 57.5 µM in experiment [4]; above 100 µM in experiment [5]; 68.2 µM in [6]. In addition, the TGI in [7] was above 100 µM; in [8], above 100 µM; in experiment [9], above 100 µM; in experiment [10], 89.1 µM; in experiment [11] it was 99.6 µM; in experiment [12], above 100 µM. In [13], this compound returned a TGI above 100 µM.
